{"source": "patent US20070128217A1", "about": "(priority 2003, published 2007)", "key": {"[1]": {"tested_on": "antibodies in sera from SARS patients (sera 1a, 1b, 2, 6, 37, 62, London, SARS-yellow, SARS-green)", "type": "binding, human", "set-up": "Binding of serum 6 to linear peptides of protein X1 of SARS-CoV Urbani / Binding of serum 37 to linear peptides of protein X1 of SARS-CoV Urbani / Binding of serum 6 to looped/cyclic peptide (PEPSCAN-ELISA) / Binding of serum 37 to looped/cyclic peptide (PEPSCAN-ELISA) / Binding of serum 37 to looped/cyclic peptides of protein X1 of SARS-CoV Urbani / Binding of serum 6 to linear peptides of protein X2 / Binding of serum 37 to linear peptides of protein X2 / Binding of serum 37 to looped/cyclic peptides of protein X2 of SARS-CoV Urbani / Binding of serum 6 to linear peptides of protein M of SARS-CoV Urbani / Binding of serum 37 to linear peptides of protein M of SARS-CoV Urbani / Binding of serum 6 to looped/cyclic peptides of protein M of SARS-CoV Urbani / Binding of serum 37 to looped/cyclic peptides of protein M of SARS-CoV Urbani / Binding of serum 6 to linear peptides of protein X3 of SARS-CoV Urbani / Binding of serum 37 to linear peptides of protein X3 of SARS-CoV Urbani / Binding of serum 37 to looped/cyclic peptides of protein X3 of SARS-CoV Urbani / Binding of serum 6 to linear peptides of protein X4 of SARS-CoV Urbani / Binding of serum 37 to linear peptides of protein X4 of SARS-CoV Urbani / Binding of serum 37 to looped/cyclic peptides of protein X4 of SARS-CoV Urbani / Binding of serum 6 to linear peptides of protein X5 of SARS-CoV Urbani / Binding of serum 37 to linear peptides of protein X5 of SARS-CoV Urbani / Binding of serum 37 to looped/cyclic peptides of protein X5 of SARS-CoV Urbani / Binding of serum 6 to linear peptides of protein N of SARS-CoV Urbani / Binding of serum 37 to linear peptides of protein N of SARS-CoV Urbani / Binding of serum 6 to linear peptide (PEPSCAN-ELISA) / Binding of serum 1a to looped/cyclic peptides of protein N of SARS-CoV Urbani / Binding of serum 1b to looped/cyclic peptides of protein N of SARS-CoV Urbani / Binding of serum 2 to looped/cyclic peptides of protein N of SARS-CoV Urbani / Binding of serum 6 to looped/cyclic peptides of protein N of SARS-CoV Urbani / Binding of serum 37 to looped/cyclic peptides of protein N of SARS-CoV Urbani / Binding of serum 62 to looped/cyclic peptides of protein N of SARS-CoV Urbani / Binding of serum London to looped/cyclic peptides of protein N of SARS-CoV Urbani / Binding of serum SARS-green to looped/cyclic peptides of protein N of SARS-CoV Urbani: unit not given here"}, "[2]": {"tested_on": "control sera (pooled serum of ten healthy LUMC hospital workers; commercial negative donor pooled serum from the Dutch bloodbank)", "type": "binding, human", "set-up": "Binding of Control serum LUMC to linear peptides / Binding of Control serum Blood-bank to linear peptides / Binding of Control serum LUMC to looped peptides / Binding of Control Serum Blood-Bank to Looped peptides / Binding of Control serum LUMC to linear peptides of the protein M of SARS-CoV Urbani / Binding of Control serum Blood-bank to linear peptides of the protein M of SARS-CoV Urbani / Binding of Control serum LUMC to looped peptides of the protein M of SARS-CoV Urbani / Binding of Control Serum Blood-Bank to Looped peptides of the protein M of SARS-CoV Urbani: unit not given here"}, "[3]": {"tested_on": "rabbit serum obtained by immunizing a rabbit with the SARS-CoV strain Frankfurt 1", "type": "binding", "set-up": "Binding of a rabbit serum to linear peptides / Binding of a rabbit serum to looped peptides / Rabbit serum linear peptides / Rabbit serum looped peptides / Binding of a rabbit serum to linear peptides of protein N of SARS-CoV Urbani (Rabbit serum linear peptides) / Binding of a rabbit serum to looped/cyclic peptides of protein N of SARS-CoV Urbani (Rabbit serum looped peptides): unit not given here"}, "[4]": {"tested_on": "recombinant human anti-SARS-CoV antibody 03-018", "type": "binding", "set-up": "Binding of antibody 03-018 to linear peptides of the N protein of SARS-CoV Urbani / Binding of antibody 03-018 to looped/cyclic peptides of the N protein of SARS-CoV Urbani: unit not given here"}}}
{"sequence": "VATEGALNTPKDHIG", "values": [{"measurement": "Binding of serum 1a to linear peptides of protein N of SARS-CoV Urbani", "setting": "[1]", "result": 0.3}, {"measurement": "Binding of serum 1a to looped/cyclic peptides of protein N of SARS-CoV Urbani", "setting": "[1]", "result": 0.3}, {"measurement": "Binding of serum 1b to linear peptides of protein N of SARS-CoV Urbani", "setting": "[1]", "result": 0.1}, {"measurement": "Binding of serum 1b to looped/cyclic peptides of protein N of SARS-CoV Urbani", "setting": "[1]", "result": 0.2}, {"measurement": "Binding of serum 2 to linear peptides of protein N of SARS-CoV Urbani", "setting": "[1]", "result": 0.2}, {"measurement": "Binding of serum 2 to looped/cyclic peptides of protein N of SARS-CoV Urbani", "setting": "[1]", "result": 0.3}, {"measurement": "Binding of serum 6 to linear peptides of protein N of SARS-CoV Urbani", "setting": "[1]", "result": 0.2}, {"measurement": "Binding of serum 6 to looped/cyclic peptides of protein N of SARS-CoV Urbani", "setting": "[1]", "result": 0.2}, {"measurement": "Binding of serum 37 to linear peptides of protein N of SARS-CoV Urbani", "setting": "[1]", "result": 0.7}, {"measurement": "Binding of serum 37 to looped/cyclic peptides of protein N of SARS-CoV Urbani", "setting": "[1]", "result": 0.4}, {"measurement": "Binding of serum 62 to linear peptides of protein N of SARS-CoV Urbani", "setting": "[1]", "result": 1.1}, {"measurement": "Binding of serum 62 to looped/cyclic peptides of protein N of SARS-CoV Urbani", "setting": "[1]", "result": 0.3}, {"measurement": "Binding of serum London to linear peptides of protein N of SARS-CoV Urbani", "setting": "[1]", "result": 0.7}, {"measurement": "Binding of serum London to looped/cyclic peptides of protein N of SARS-CoV Urbani", "setting": "[1]", "result": 0.3}, {"measurement": "Binding of serum SARS-green to linear peptides of protein N of SARS-CoV Urbani", "setting": "[1]", "result": 0.5}, {"measurement": "Binding of serum SARS-green to looped/cyclic peptides of protein N of SARS-CoV Urbani", "setting": "[1]", "result": 0.2}, {"measurement": "Binding of serum SARS-yellow to linear peptides of protein N of SARS-CoV Urbani", "setting": "[1]", "result": 0.6}, {"measurement": "Binding of serum SARS-yellow to looped/cyclic peptides of protein N of SARS-CoV Urbani", "setting": "[1]", "result": 0.2}, {"measurement": "Binding of Control Serum Blood-Bank to Looped peptides", "setting": "[2]", "result": 0.5}, {"measurement": "Binding of Control serum Blood-bank to linear peptides", "setting": "[2]", "result": 0.9}, {"measurement": "Binding of Control serum LUMC to linear peptides", "setting": "[2]", "result": 0.9}, {"measurement": "Binding of Control serum LUMC to looped peptides", "setting": "[2]", "result": 0.5}, {"measurement": "Binding of a rabbit serum to linear peptides of protein N of SARS-CoV Urbani (Rabbit serum linear peptides)", "setting": "[3]", "result": 0.2}, {"measurement": "Binding of a rabbit serum to looped/cyclic peptides of protein N of SARS-CoV Urbani (Rabbit serum looped peptides)", "setting": "[3]", "result": 0.0}, {"measurement": "Binding of antibody 03-018 to linear peptides of the N protein of SARS-CoV Urbani", "setting": "[4]", "result": 0.2}, {"measurement": "Binding of antibody 03-018 to looped/cyclic peptides of the N protein of SARS-CoV Urbani", "setting": "[4]", "result": 0.2}]}
{"sequence": "VILLNKHIDAYKTFP", "values": [{"measurement": "Binding of serum 1a to linear peptides of protein N of SARS-CoV Urbani", "setting": "[1]", "result": 0.2}, {"measurement": "Binding of serum 1a to looped/cyclic peptides of protein N of SARS-CoV Urbani", "setting": "[1]", "result": 0.3}, {"measurement": "Binding of serum 1b to linear peptides of protein N of SARS-CoV Urbani", "setting": "[1]", "result": 0.1}, {"measurement": "Binding of serum 1b to looped/cyclic peptides of protein N of SARS-CoV Urbani", "setting": "[1]", "result": 0.1}, {"measurement": "Binding of serum 2 to linear peptides of protein N of SARS-CoV Urbani", "setting": "[1]", "result": 0.2}, {"measurement": "Binding of serum 2 to looped/cyclic peptides of protein N of SARS-CoV Urbani", "setting": "[1]", "result": 0.3}, {"measurement": "Binding of serum 6 to linear peptides of protein N of SARS-CoV Urbani", "setting": "[1]", "result": 0.2}, {"measurement": "Binding of serum 6 to looped/cyclic peptides of protein N of SARS-CoV Urbani", "setting": "[1]", "result": 0.2}, {"measurement": "Binding of serum 37 to linear peptides of protein N of SARS-CoV Urbani", "setting": "[1]", "result": 0.7}, {"measurement": "Binding of serum 37 to looped/cyclic peptides of protein N of SARS-CoV Urbani", "setting": "[1]", "result": 0.5}, {"measurement": "Binding of serum 62 to linear peptides of protein N of SARS-CoV Urbani", "setting": "[1]", "result": 0.7}, {"measurement": "Binding of serum 62 to looped/cyclic peptides of protein N of SARS-CoV Urbani", "setting": "[1]", "result": 0.4}, {"measurement": "Binding of serum London to linear peptides of protein N of SARS-CoV Urbani", "setting": "[1]", "result": 0.5}, {"measurement": "Binding of serum London to looped/cyclic peptides of protein N of SARS-CoV Urbani", "setting": "[1]", "result": 0.4}, {"measurement": "Binding of serum SARS-green to linear peptides of protein N of SARS-CoV Urbani", "setting": "[1]", "result": 0.4}, {"measurement": "Binding of serum SARS-green to looped/cyclic peptides of protein N of SARS-CoV Urbani", "setting": "[1]", "result": 0.2}, {"measurement": "Binding of serum SARS-yellow to linear peptides of protein N of SARS-CoV Urbani", "setting": "[1]", "result": 0.5}, {"measurement": "Binding of serum SARS-yellow to looped/cyclic peptides of protein N of SARS-CoV Urbani", "setting": "[1]", "result": 0.3}, {"measurement": "Control Serum Blood-Bank Looped peptides", "setting": "[2]", "result": 0.5}, {"measurement": "Control serum Blood-bank linear peptides", "setting": "[2]", "result": 0.7}, {"measurement": "Control serum LUMC linear peptides", "setting": "[2]", "result": 0.8}, {"measurement": "Control serum LUMC looped peptides", "setting": "[2]", "result": 0.4}, {"measurement": "Binding of a rabbit serum to linear peptides of protein N of SARS-CoV Urbani (Rabbit serum linear peptides)", "setting": "[3]", "result": 0.1}, {"measurement": "Binding of a rabbit serum to looped/cyclic peptides of protein N of SARS-CoV Urbani (Rabbit serum looped peptides)", "setting": "[3]", "result": 0.4}, {"measurement": "Binding of antibody 03-018 to linear peptides of the N protein of SARS-CoV Urbani", "setting": "[4]", "result": 0.1}, {"measurement": "Binding of antibody 03-018 to looped/cyclic peptides of the N protein of SARS-CoV Urbani", "setting": "[4]", "result": 0.2}]}
